Reference: US20160362418A1, “CARBOXAMIDE-SUBSTITUTED XANTHENE DYES” (priority 2015, published 2016)

Test: Spectral properties of fluorescent dyes (Abs/Em)
Type: physicochemical
Settings: for Abs: absorbance maximum, first number of Abs/Em; for Em: emission maximum, second number of Abs/Em
Description: The spectral properties of dyes can be tuned by modifying the rhodamine core of dyes.

SMILES | Abs [nm] | Em [nm]
CC(=O)O.CN(CCS(=O)(=O)O)C(=O)c1ccccc1-c1c2ccc(=N)cc-2oc2cc(N)ccc12 [Compound 1] | 518 | 539
CC(=O)O.CN(CCS(=O)(=O)[O-])C(=O)c1ccccc1C1=c2cc3c(cc2Oc2cc4c(cc21)C(CS(=O)(=O)O)=CC(C)(C)N4C)=[N+](C)C(C)(C)C=C3CS(=O)(=O)O [Compound 6] | 601 | 623
